PubChem BioAssay AID194 (DTP/NCI, 2004)
Inconclusive results are not listed.

Tested on: BDF1 mice, B16 melanoma s.c., survival/tumor T/C
Experiment: NCI In Vivo Anticancer Drug Screen. Data for tumor model B16 Melanoma (subcutaneous) in B6D2F1 (BDF1) mice
Settings: endpoint: median survival time, higher = longer survival
Protocol: The antitumor activity of compounds was measured in mice bearing transplantable tumors. Survival or tumor size were measured and the results are expressed as the measurement made in the treated group (T) divided by the measurement made in the vehicle treated control group (C). The tumor model used in this assay is B16 Melanoma (subcutaneous) in B6D2F1 (BDF1) mice

[1] = dose: 1.0 mg/kg/injection, schedule: Q01DX009 (ip), vehicle: saline with Tween-80
[2] = dose: 4.0 mg/kg/injection, schedule: Q01DX009 (ip), vehicle: saline with Tween-80

CC/C(=C(/CC)c1ccc(O)cc1)c1ccc(O)cc1
T/C (dose: 6.0 mg/kg/injection, schedule: Q01DX009 (ip), vehicle: Klucel (hydroxypropylcellulose) (HPC)): 93 % of control
T/C (dose: 12.0 mg/kg/injection, schedule: Q01DX009 (ip), vehicle: Klucel (hydroxypropylcellulose) (HPC)): 100 % of control
T/C (dose: 24.0 mg/kg/injection, schedule: Q01DX009 (ip), vehicle: Klucel (hydroxypropylcellulose) (HPC)): 106 % of control
T/C (dose: 48.0 mg/kg/injection, schedule: Q01DX009 (ip), vehicle: Klucel (hydroxypropylcellulose) (HPC)): 97 % of control

Nc1nncs1
T/C (dose: 59.0 mg/kg/injection, schedule: Q01DX009 (ip), vehicle: saline with Tween-80): 108 % of control
T/C (dose: 1200.0 mg/kg/injection, schedule: Q04DX003 (ip), vehicle: saline with Tween-80): 121 % of control
T/C (dose: 1800.0 mg/kg/injection, schedule: Q04DX003 (ip), vehicle: saline with Tween-80): 104 % of control
T/C (dose: 2000.0 mg/kg/injection, schedule: Q01DX001 (ip), vehicle: saline with Tween-80): 108 % of control
T/C (dose: 3000.0 mg/kg/injection, schedule: Q01DX001 (ip), vehicle: saline with Tween-80): 113 % of control

Nc1ncnc2c1ncn2C1OC(CO)C(O)C1O (centres undefined)
T/C (dose: 60.0 mg/kg/injection, schedule: Q03HX024 (ip), vehicle: saline with Tween-80): 115 % of control
T/C (dose: 70.0 mg/kg/injection, schedule: Q03HX024 (ip), vehicle: saline with Tween-80): 96 % of control
T/C (dose: 80.0 mg/kg/injection, schedule: Q03HX024 (ip), vehicle: saline with Tween-80): 105 % of control
T/C (dose: 160.0 mg/kg/injection, schedule: Q03HX024 (ip), vehicle: saline with Tween-80): 115 % of control
T/C (dose: 240.0 mg/kg/injection, schedule: Q03HX024 (ip), vehicle: saline with Tween-80): 121 % of control

COc1ccc(C[C@H](N)C(=O)NC2C(CO)OC(n3cnc4c(N(C)C)ncnc43)C2O)cc1 (some centres undefined)
T/C (dose: 8.0 mg/kg/injection, schedule: Q01DX009 (ip), vehicle: saline): 151 % of control
T/C (dose: 16.0 mg/kg/injection, schedule: Q01DX009 (ip), vehicle: saline): 96 % of control
T/C (dose: 32.0 mg/kg/injection, schedule: Q01DX009 (ip), vehicle: saline): 107 % of control

CCCCCCCC(=O)OCC(=O)[C@]1(O)Cc2c(O)c3c(c(O)c2[C@@H](OC2CC(N)C(O)C(C)O2)C1)C(=O)c1c(OC)cccc1C3=O (some centres undefined)
T/C (dose: 0.5 mg/kg/injection, schedule: Q01DX009 (ip), vehicle: saline with Tween-80): 98 % of control
T/C [1]: 109 % of control

COC1/C=C\C=C(/C)C(=O)NC2=CC(=O)C(=O)C(=C2O)CC(C)CC(OC)C(O)C(C)/C=C(\C)C1OC(N)=O (centres undefined)
T/C (dose: 0.78 mg/kg/injection, schedule: Q01DX005 (ip), vehicle: other): 88 % of control
T/C (dose: 3.13 mg/kg/injection, schedule: Q01DX005 (ip), vehicle: other): 114 % of control
T/C (dose: 6.25 mg/kg/injection, schedule: Q01DX005 (ip), vehicle: other): 105 % of control

Cc1ncc([N+](=O)[O-])n1CCO
T/C (dose: 37.5 mg/kg/injection, schedule: Q01DX009 (ip), vehicle: Klucel (hydroxypropylcellulose) (HPC)): 100 % of control
T/C (dose: 37.5 mg/kg/injection, schedule: Q04DX003 (ip), vehicle: Klucel (hydroxypropylcellulose) (HPC)): 100 % of control
T/C (dose: 75.0 mg/kg/injection, schedule: Q01DX009 (ip), vehicle: Klucel (hydroxypropylcellulose) (HPC)): 100 % of control
T/C (dose: 75.0 mg/kg/injection, schedule: Q04DX003 (ip), vehicle: Klucel (hydroxypropylcellulose) (HPC)): 111 % of control
T/C (dose: 150.0 mg/kg/injection, schedule: Q01DX009 (ip), vehicle: Klucel (hydroxypropylcellulose) (HPC)): 108 % of control
T/C (dose: 150.0 mg/kg/injection, schedule: Q04DX003 (ip), vehicle: Klucel (hydroxypropylcellulose) (HPC)): 111 % of control
T/C (dose: 300.0 mg/kg/injection, schedule: Q01DX009 (ip), vehicle: Klucel (hydroxypropylcellulose) (HPC)): 93 % of control
T/C (dose: 300.0 mg/kg/injection, schedule: Q04DX003 (ip), vehicle: Klucel (hydroxypropylcellulose) (HPC)): 112 % of control
T/C (dose: 600.0 mg/kg/injection, schedule: Q04DX003 (ip), vehicle: Klucel (hydroxypropylcellulose) (HPC)): 121 % of control

Nc1nc(=S)c2ncn(C3CC(O)C(CO)O3)c2[nH]1 (centres undefined)
T/C [2]: 109 % of control
T/C (dose: 8.0 mg/kg/injection, schedule: Q01DX009 (ip), vehicle: saline with Tween-80): 91 % of control
T/C (dose: 16.0 mg/kg/injection, schedule: Q01DX009 (ip), vehicle: saline with Tween-80): 95 % of control
T/C (dose: 32.0 mg/kg/injection, schedule: Q01DX009 (ip), vehicle: saline with Tween-80): 91 % of control
T/C (dose: 64.0 mg/kg/injection, schedule: Q01DX009 (ip), vehicle: saline with Tween-80): 123 % of control

COc1cccc2c1C(=O)c1c(O)c3c(c(O)c1C2=O)C[C@@](O)(C(=O)COC(=O)Cc1cccc2ccccc12)C[C@@H]3OC1CC(N)C(O)C(C)O1 (some centres undefined)
T/C [1]: 111 % of control
T/C (dose: 2.0 mg/kg/injection, schedule: Q01DX009 (ip), vehicle: saline with Tween-80): 114 % of control
T/C [2]: 94 % of control
